Laboratory results taken from patent publication US10450327B2, “Epidithiodioxopiperazine compound or its derivatives, and the use thereof” (priority 2011, dated 2019).
“Also recorded” adds a separate entry of the source.

What was measured:
HASMCs = type: cell-based, human; conditions: up to 100 nM (200 nM for A4, A7, A9)
HAECs = type: cell-based, human; conditions: up to 50 nM (100 nM for A4, A7, A9)
Method: For cell proliferation assay, HAECs were divided at a concentration of 4000 cells/well in a final volume of 100 μl onto a 96-well plate including a siRNA-transfection reagent mixture. After siRNA-transfected for 24 hours, the cells were serum-starved for 18 hours, and then placed in an EBM-2 basal medium supplemented with VEGF-A165 (25 ng/ml, Cat no. 293-VE, R&D systems) for additional 24 hours. The extent of cell proliferation was measured using a WST-1 cell proliferation assay kit (Roche Diagnostics, USA), and the number of cells was expressed as absorbance at 450 nm, which was averaged from 3 wells after subtracting the turbidity at 600 nm.
The cell migration assay was performed in a 24-well Transwell culture chamber (Costar; 8-μm pore size). The bottom of the filter was coated with gelatin B (1 mg/ml) and air-dried for 1 hour. HAECs (6×10^3) were added to upper chambers including siRNA-transfection complexes. After 24 hours, the siRNA-transfected HAECs were serum-starved overnight. A solution of VEGF-A (25 ng/ml) was prepared in a basal medium including 0.5% bovine serum albumin (BSA), and added to bottom chambers. The upper chamber wells were each filled with a basal medium including 0.5% BSA. The Transwell chamber was incubated for 8 hours under the condition of 37° C./5% carbon dioxide. After the incubation, the non-migrated cells at the top of the filter were removed, and the cells that migrated onto the bottom of filter were fixed and stained with 0.6% hematoxylin and 0.5% eosin. The stained cells were photographed and counted. The number of migrating cells was averaged from 3 wells.

[1] = system: yeast thioredoxin (Trx) / yeast thioredoxin reductase (TR) system; test: Peroxidase activity assay (hydrogen peroxide reduction), Trx/TR system; type: biochemical
Method: The peroxidase activity assay for the epidithiodioxopiperazine derivatives according to the present invention (hereinafter, referred to as ETP compounds) was performed according to known methods [Korean Patent No. 10-0953326]. A standard peroxidase reaction for spectrophotometric assay was carried out using a 200 μl reaction mixture of 1 mM EDTA-containing 50 mM Hepes-NaOH buffer solution (pH 7.0) including 250 μM NADPH, 3 μM yeast thioredoxin (Trx), 1.5 μM yeast thioredoxin reductase (TR), 25 μM ETP compound and […] of hydrogen peroxide. For the comparison with a glutathione (GSH)-dependent peroxidase reaction, GSH (1 mM) and yeast glutathione reductase (GSH reductase; GR) (1 Unit) were added instead of yeast Trx and TR. Each reaction was initiated by adding hydrogen peroxide, and the NADPH oxidation was monitored for 12 minutes at 30° C. according to absorbance decrease at 340 nm using an Agilent UV8453 spectrophotometer (Hewlett Packard, USA). The initial reaction rate was calculated using the linear portion of the curve and expressed as the amount of NADPH oxidized per minute.
The chemical feature of the epidithiodioxopiperazine compound of the present invention or its derivatives is the intramolecular disulfide bridge present in the epidithiodioxopiperazine ring moiety. Cellular peroxidase reduces hydrogen peroxide utilizing the electrons derived from NADPH via two electron-transfer routes, that is, Trx/TR or GSH/GR, therefore, spectrophotometric assay was performed for the hydrogen peroxide-reducing activity in the presence of each system, and the results are shown in FIGS. 1 to 5.

[2] = system: balloon-injured rat carotid artery; test: Balloon-injury model of rat carotid artery; type: in vivo; conditions: local administration to the lumen through catheter, 30 minutes; ETP derivatives 200 nM; 10 days recovery
Method: Animal experiments were performed in compliance with the guidelines of Institutional Animal Care and Use Committee (IACUC) of the Ewha Womans University. Balloon injury was created using an infiltrated 2 F Fogarty balloon catheter in the left common carotid artery as follows: after the ten-week-old male Sprague-Dawley rats were anaesthetized by isoflurane gas (N2O:O2/70%:30%) inhalation, the left external carotid artery was exposed, and its branches were electrocoagulated. A catheter was pushed 1 cm in through the transverse arteriotomy of the external carotid artery, and the endothelial denudation was achieved by three passes along the common carotid artery. After the catheter was removed, the punched area was sealed and the clapped common carotid artery was opened for resuming the blood flow. Unless otherwise stated, the rats were recovered in a cage for 10 days, and subjected to histological and immunological analyses.
Rats were anesthetized, and the common carotid artery was excised after transcardiac perfusion-fixation with a heparinized saline solution containing 3.7% formaldehyde. The vessels were paraffin embedded and sectioned using a rotary microtome (Leica RM2255). Two serial tissue sections (4 μm in thickness) were obtained from the middle area of common carotid arteries, and stained with haematoxylin and eosin (HE). The luminal, internal elastic laminal, and external elastic laminal areas were measured using NIH Image v1.62. The intimal and medial areas were determined by subtracting the luminal area from the internal elastic area and subtracting the internal elastic area from the external elastic area. The values from the two serial sections for each rat were averaged for analysis.
For the in vivo injection of siRNA, a siRNA mixture specific to rat PrxII (200 nM) was premixed with a siPORT™ NeoFX™ reagent according to the instructions of the manufacturer (Ambion). Immediately after the balloon injury, the siRNA-injected mixture (200 μL) was injected through a catheter after briefly washed with Opti-MEM. After the incubation for 15 minutes, the blood flow was resumed. A siGLO-Red (Dharmacon), which is fluorescent dye-conjugated control siRNA, was used for optimizing in vivo injection efficiency. Similarly, the ETP compound (200 nM in DMSO) was injected through a catheter and incubated for 30 minutes.
Immunohistochemistry for the overoxidized 2-Cys Prxs was performed on the paraffin sections using an anti-Prx-SO2/3 antibody (1:1000 dilution). Briefly, the sections were de-waxed in xylene and rehydrated in ethanol, and subsequently the antigen retrieval was performed by boiling in a citric buffer solution (pH 6.0). After that, the sections were incubated with a primary antibody for 48 hours at 4° C. After washing three times with a phosphatebuffered saline solution, the sections were incubated with a peroxidase-conjugated secondary antibody and stained with a 3′,3′-diaminobenzidine (DAB) substrate solution. For negative staining, the Prx-502/3 antibody was blocked with the corresponding antigenic peptide (DFTFVC(SO2/3)PTEI). For indirect immunofluorescence staining, the paraffin sections were blocked with 5% normal rabbit serum (Vector Laboratories) in PBST (a PBS solution of 0.3% Triton X-100) for 1 hour at room temperature. The sections were then incubated overnight at 4° C. with the […] against rat smooth muscle α-actin (1:300 dilution) and rat CD31 (PECAM-1, 1:200 dilution). The nuclei were labeled with DAPI. After several PBST washes, the samples were incubated for 2 hours at room temperature with Alexa Fluor 568-conjugated donkey anti-mouse and Alexa Fluor 488-conjugated donkey anti-rabbit IgG antibodies. The fluorescence images were recorded on three random fields per tissue section at a screen magnification of 100× using a LSM 510 Meta confocal microscope equipped with argon and helium-neon lasers.
The paraffin sections were incubated for 10 minutes in PBS containing 0.1% Triton X-100. […]

Structure (SMILES)	proliferation and chemotactic transmigration of HASMCs in response to PDGF, enhanced by PrxII knockdown (HASMCs)	VEGF-induced proliferation and chemotactic transmigration of HAECs, impaired by PrxII knockdown (HAECs)	initial reaction rate for hydrogen peroxide reduction compared to the corresponding oxidized type [1]	intimal hyperplasia (ratio of intima versus media, HE staining) [2]	hydrogen peroxide-reducing (peroxidase) activity in the presence of a Trx/TR system, in words [1]
CN1C(=O)C2SSC1C(=O)N2C [Compound A2, 5,7-dimethyl-2,3-dithia-5,7-diazabicyclo[2.2.2]-octane-6,8-dione]	excellent activities	excellent activities	–	–	–
O=C1C2SSC(C(=O)N2C(c2ccccc2)c2ccccc2)N1C(c1ccccc1)c1ccccc1 [Compound A7, 5,7-dibenzhydryl-2,3-dithia-5,7-diazabicyclo[2.2.2]octane-6,8-dione]	insignificant activities; also recorded: low activities	insignificant activities; also recorded: low activities	–	–	–
COc1ccc(CN2C(=O)C3NC(=O)C2SS3)cc1 (centres unmarked) [Compound A6, 5-(4-methoxybenzyl)-2,3-dithia-5,7-diazabicyclo[2.2.2]octane-6,8-dione]	moderate activities	moderate activities	–	–	–
CCCCN1C(=O)C2SSC1C(=O)N2CCCC [Compound A8, 5,7-dibutyl-2,3-dithia-5,7-diazabicyclo[2.2.2]octane-6,8-dione]	excellent activities	excellent activities	–	–	–
C=CCN1C(=O)C(S)N(CC=C)C(=O)C1S (centres unmarked) [Compound A5R, 3,6-dimercapto-1,4-diallylpiperazine-2,5-dione]	no significant changes	no significant changes	higher intial reaction rates	–	–
COCCCN1C(=O)C2SSC1C(=O)N2CCCOC [Compound A9, 5,7-bis(3-methoxypropyl)-2,3-dithia-5,7-diazabicyclo[2.2.2]octane-6,8-dione]	insignificant activities; also recorded: moderate activities	insignificant activities; also recorded: moderate activities	–	–	–
CN1C(=O)C(S)N(C)C(=O)C1S (centres unmarked) [Compound A2R, 3,6-dimercapto-1,4-dimethylpiperazine-2,5-dione]	no significant changes	no significant changes	higher intial reaction rates	–	–
CN1C(=O)C2(C)SSC1C(=O)N2C (centres unmarked) [Compound A3, 1,5,7-trimethyl-2,3-dithia-5,7-diazabicyclo[2.2.2]octane-6,8-dione]	excellent activities	excellent activities	–	–	–
C=CCN1C(=O)C2SSC1C(=O)N2CC=C [Compound A5, 5,7-diallyl-2,3-dithia-5,7-diazabicyclo[2.2.2]octane-6,8-dione]	excellent activities	excellent activities	–	–	–
CS[C@]1(CO)C(=O)N2[C@H]3C(=CC=C[C@@H]3O)C[C@@]2(SC)C(=O)N1C [bis(methylthio)gliotoxin, Bis(methylthio)gliotoxin]	–	–	–	did not suppress	not observed
COc1ccc(CN2C(=O)C3SSC2C(=O)N3Cc2ccc(OC)cc2)cc1 [Compound A4, 5,7-bis(4-methoxybenzyl)-2,3-dithia-5,7-diazabicyclo[2.2.2]octane-6,8-dione]	insignificant activities; also recorded: low activities	insignificant activities; also recorded: low activities	–	–	–
O=C1NC2SSC1NC2=O [Compound A1, 2,3-dithia-5,7-diazabicyclo[2.2.2]octane-6,8-dione]	excellent activities	excellent activities	–	–	–
